Data set [1] in a line: Dose normalised AUC in rat after po administration. Particulars: in vivo.
Data set [2] can be described thus: Dose normalised AUC in dog after po administration. Particulars: in vivo.
Data set [3] in a line: Dose normalised AUC in monkey after po administration. The conditions noted are these: macaca, in vivo.
The nature of data set [4]: Dose normalised AUC in human after po administration. Particulars: in vivo.

Turning to `O=P(O)(O)C(Sc1ccc(Cl)cc1)P(=O)(O)O` [TILUDRONIC ACID], the DNAUC in data set [1] came out at 37.2 kg·min/L; in data set [2], 129.6 kg·min/L; in data set [3], 171.6 kg·min/L; in data set [4] it was 286.32 kg·min/L.

Take `Cc1c(C)c2c(c(C)c1O)CCC(C)(COc1ccc(CC3SC(=O)NC3=O)cc1)O2` (stereo not given) [TROGLITAZONE]: the DNAUC in data set [1] is 13.44 kg·min/L; in data set [2] it was 61.2 kg·min/L; in data set [3] it was 34.08 kg·min/L; in data set [4], 80.71 kg·min/L.

As for `N[C@@H]1[C@H]2CN(c3nc4c(cc3F)c(=O)c(C(=O)O)cn4-c3ccc(F)cc3F)C[C@@H]12` [TROVAFLOXACIN], the DNAUC in data set [1] was found to be 51 kg·min/L; in data set [2], 44.25 kg·min/L; in data set [3] it was 120.6 kg·min/L; in data set [4], 540 kg·min/L.

In the case of `COc1ccc(C(CN(C)C)C2(O)CCCCC2)cc1` (stereo not given) [VENLAFAXINE], the DNAUC was found to be 1.97 kg·min/L in data set [1], 48 kg·min/L in data set [2], 1.8 kg·min/L in data set [3] and 1 kg·min/L in data set [4].

Regarding `NS(=O)(=O)Cc1noc2ccccc12` [ZONISAMIDE], the DNAUC in data set [1] stood at 663 kg·min/L; in data set [2], 1458 kg·min/L; in data set [3], 2097 kg·min/L; in data set [4], 3030 kg·min/L.
